Tests used:
VIM-4 = molecular target: T1, VIM-4 (Pseudomonas aeruginosa, UniProt A0A0F7KYQ8, S205R); assay: MBL inhibition, reporter substrate method, VIM-4; format: biochemical; details: read-out: Inhibition of VIM-4 (dash)
T1 construct: made in house; host or cells: E. coli BL21(DE3) derivative, pET-9a
Protocol: (§1) Compounds were prepared in DMSO at a final concentration of 50 mM prior to dilution in the assay buffer. The reaction rate was measured as the variation of absorbance observed upon substrate hydrolysis in a UV-Vis spectrophotometer or microplate reader at a wavelength of 300 nm (imipenem, meropenem), 260 nm (cefotaxime), or 482 nm (nitrocefin) and in the presence of a purified MBL enzyme (such as VIM-1, VIM-2, VIM-4, NDM-1, and IMP-1, at a final concentration ranging from 1 to 70 nM).
(§2) These enzymes were overproduced in derivatives of E. coli BL21(DE3) carrying a pET-9 a (IMP-1, VIM-1, VIM-2, and VIM-4) or pET-15 b (NDM-1) vector into which the metallo-β-lactamase-encoding open reading frame was cloned. Bacterial strains were grown in the auto-inducing medium, ZYP-5052, supplemented with 50 μg/mL kanamycin for 24 h at 37 °C [38]. IMP-1, VIM-1, VIM-2, and VIM-4 were purified by ion-exchange and gel filtration chromatography using an AKTA Purifier platform (GE Healthcare, Uppsala, Sweden) as previously described. NDM-1 (residues 37-270) was produced as an amino-terminal 6 xHis-tag fusion protein and was purified using affinity chromatography. After growth for 26 h at 25 °C, bacterial cells were harvested by centrifugation (10,000× g, 30 min, 4 °C), resuspended in 10 mM HEPES buffer (pH 7.5) containing 0.15 M NaCl (buffer A) in one-fifth of the original culture volume, and lysed by sonication. Cellular debris was removed by centrifugation (12,000× g, 40 min, 4 °C). The clarified sample was loaded on a HisTrap HP column (bed volume, 5 mL; GE Healthcare), followed by a wash step (25 mL) with buffer A containing 20 mM imidazole. Proteins were eluted using buffer A containing 350 mM imidazole. The resulting protein sample was desalted (HiPrep 26/10 Desalting column, GE Healthcare) using 20 mM triethanolamine (pH 7.2) supplemented with 50 μM ZnSO4 and concentrated using an Amicon Ultra-15 (MW cut-off, 10 kDa; Millipore, Burlington, MA, USA). The concentrated sample was loaded on a Superdex 75 prep grade column (XK16/100 column; bed volume, 140 mL; GE Healthcare) and the proteins eluted with buffer A containing 50 μM ZnSO4. The active fractions were pooled and stored at −20 °C. The purity of the protein preparations was estimated >95% by SDS-PAGE analysis. The authenticity of the enzyme preparations was confirmed by electron spray ionization mass spectrometry, as previously described.
(§3) The inhibition constants (Ki) were determined on the basis of a model of competitive inhibition by analyzing the dependence of the ratio v0/vi (v0, hydrolysis velocity in the absence of inhibitor; vi, hydrolysis velocity in the presence of inhibitor) as a function of [I] as already described. The slope of the plot of v0/vi vs. [I], which corresponds to Km^S/(Km^S + [S])Ki (where Km^S is the Km value of the reporter substrate and [S] its concentration in the reaction mixture) and allowed the calculation of the Ki value. Alternatively, a Dixon plot analysis was carried out by measuring the initial hydrolysis rates in the presence of variable concentrations of inhibitor and substrate. This allowed Ki values to be determined and supported the hypothesis that the various compounds behaved as competitive inhibitors of the various tested enzymes. The assays were performed in triplicate.

VIM-2 = molecular target: T2, VIM-2 (Escherichia coli, UniProt Q5U7L7); assay: MBL inhibition, reporter substrate method, VIM-2; format: biochemical; details: hydrazine and hydrazide series; read-out: Ki Value VIM-2
T2 construct: made in house; host or cells: E. coli BL21(DE3) derivative, pET-9a
Protocol: as §1, §2, §3

[1] = tested on: E. coli LZ2310(pLBII-VIM-2); assay: microbe, parasite or virus in culture; format: cell-based, Escherichia coli
Protocol: The potential activity of selected compounds was assessed by the agar disk-diffusion method, according to the CLSI (Clinical Laboratory Standard Institute) recommendations, using Mueller–Hinton medium. The inhibitor (dissolved in DMSO) was added (maximum volume of 15 μL) to a commercially available disk containing a defined amount of a β-lactam antibiotic (30 μg of cefoxitin (Oxoid, Milan, Italy)). After incubation (18 h at 35 °C), the diameter of the growth inhibition zone was measured and compared to that obtained in the absence of inhibitor. DMSO and EDTA (220 μg) were used as negative and positive controls, respectively. Experiments were performed in triplicate.
These tests were performed on an isogenic laboratory strain obtained after transforming Escherichia coli LZ2310 strain with a derivative of the high copy number plasmid pLB-II carrying the cloned blaVIM-2 gene harboring a cloned gene encoding the functional metallo-β-lactamase. Strain LZ2310 is a triple knockout mutant derived from K12 in which the genes encoding for components of the three major efflux pump systems were inactivated (genotype, ∆norE ∆mdfA N43 acrA1) and was used to generate an hyperpermeable background for MBL production and investigate the potential contribution of such mechanisms to inhibitor efflux.

NDM-1 = NDM-1 (Klebsiella pneumoniae, UniProt C7C422); assay: MBL inhibition, reporter substrate method, NDM-1; format: biochemical
Chain of NDM-1 (C7C422 37-270 limits assumed): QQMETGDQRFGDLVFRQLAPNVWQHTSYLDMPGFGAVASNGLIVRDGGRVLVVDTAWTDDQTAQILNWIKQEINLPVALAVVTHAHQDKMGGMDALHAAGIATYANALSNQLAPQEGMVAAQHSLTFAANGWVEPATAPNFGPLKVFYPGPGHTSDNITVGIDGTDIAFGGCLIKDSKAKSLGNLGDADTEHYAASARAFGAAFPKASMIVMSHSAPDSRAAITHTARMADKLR
Protocol: as §1, §2, §3

VIM-1 = molecular target: T3, VIM-1 (Pseudomonas aeruginosa, UniProt A0A0F7KYQ8); assay: MBL inhibition, reporter substrate method, VIM-1; format: biochemical; details: read-out: Inhibition of VIM-1 (dash)
T3 construct: made in house; host or cells: E. coli BL21(DE3) derivative, pET-9a
Protocol: as §1, §2, §3

IMP-1 = molecular target: T4, IMP-1 (Serratia marcescens, UniProt P52699); assay: MBL inhibition, reporter substrate method, IMP-1; format: biochemical; details: read-out: Inhibition of IMP-1 (dash in Ki column)
T4 construct: made in house; host or cells: E. coli BL21(DE3) derivative, pET-9a
T4 sequence (P52699 19-246 limits assumed): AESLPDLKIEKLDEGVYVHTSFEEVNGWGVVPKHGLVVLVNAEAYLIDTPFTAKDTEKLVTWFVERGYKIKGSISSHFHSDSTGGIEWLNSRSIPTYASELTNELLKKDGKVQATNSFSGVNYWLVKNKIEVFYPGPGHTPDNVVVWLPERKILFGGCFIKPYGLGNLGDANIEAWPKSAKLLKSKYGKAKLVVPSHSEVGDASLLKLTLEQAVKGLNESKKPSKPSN
Protocol: as §1, §2, §3

[2] = Escherichia coli, read-out: Inhibition Zone Diameter

O=C(O)c1ccccc1CNn1c(-c2ccccc2)n[nH]c1=S [Compound 1]
inhibition at 100 µM (VIM-4): < 30% | Ki (VIM-2): 1400 nM | Restoration of cefoxitin activity (in words) ([1]; 30 μg cefoxitin disk, compound 1 at 48 μg, EUCAST clinical breakpoints): able to restore cefoxitin susceptibility | zone of inhibition at 16 µg/disc [1, 2]: 13 mm | zone of inhibition at 32 µg/disc [1, 2]: 16 mm | zone of inhibition at 48 µg/disc [1, 2]: 20 mm | Inhibition of NDM-1 (in words) (NDM-1): inactive | inhibition at 100 µM (NDM-1; read-out: Inhibition of NDM-1 (dash in Ki column)): < 40% | inhibition at 100 µM (VIM-1): < 30% | inhibition at 100 µM (IMP-1): < 40%
